# Experimental data as given in EP0077961A2, “Substituted 2-nitro-5-(4-trifluoromethyl-phenoxy) toluols, process for their preparation and their use as herbicides and plant growth regulators” (BAYER AG, priority 1981, dated 1983).
# Test system: Baumwollpflanzen
# Experiment: Defoliation and desiccation of the leaves of cotton (Beispiel A)
# Assay type: in vivo, Baumwolle
# Conditions: greenhouse; cotton plants sprayed dripping wet at full unfolding of the 5th leaf; rated after 1 week against control plants; concentration not given
# Excerpt: Entlaubung und Austrocknung der Blätter bei Baumwolle
# Lösungsmittel: 30 Gewichtsteile Dimethylformamid Emulgator: 1 Gewichtsteil Polyoxyethylen-SorbitanMonolaurat
# Zur Herstellung einer zweckmäßigen Wirkstoffzubereitung vermischt man 1 Gewichtsteil Wirkstoff mit den angegebenen Mengen Lösungsmittel und Emulgator und füllt mit Wasser auf die gewünschte Konzentration auf.
# Baumwollpflanzen werden im Gewächshaus bis zur vollen Entfaltung des 5. Folgeblattes angezogen. In diesem Stadium werden die Pflanzen tropfnaß mit den Wirkstoffzubereitungen besprüht. Nach 1 Woche werden der Blattfall und das Austrocknen der Blätter im Vergleich zu den Kontrollpflanzen bonitiert. Es bedeuten: • 0 kein Austrocknen der Blätter, kein Blattfall • + leichtes Austrocknen der Blätter, geringer Blattfall • ++ starkes Austrocknen der Blätter, starker Blattfall • sehr starkes Austrocknen der Blätter, sehr starker Blattfall
smiles,measurement,value
"CC(=O)OCc1cc(Oc2ccc(C(F)(F)F)cc2Cl)ccc1[N+](=O)[O-] [Beispiel 1, Essigsäure-(2-nitro-5-(2-chlor-4-trifluormethyl-phenoxy)-benzyl)-ester]",Blattfall und Austrocknen der Blätter,starke Wirksamkeit
